The values below come from article PMC8048960 (Chemmedchem, 2020).

Each structure is given as a SMILES string. Peptide text beside a SMILES is read from it. * marks the point of attachment. Cbz = O=C(OCc1ccccc1)*

The target of data set [1] is LRRK2. Conditions: read-out: Ki in the biochemical assay; cited from earlier work.
The conditions of data set [2]: cited from earlier work.
Data set [3] has as its target GFP‐tagged LRRK2 in transfected HEK293 cells (Homo sapiens, UniProt Q5S007). Briefly: Ubiquitin assay. The data set is classed as cell-based. Particulars: 24 h; for LRRK2 ubiquitination (ubiquitin signal): 10 µM, with or without 5 µM MG132, compared to DMSO.
The subject of data set [4] is LRRK2. Particulars: read-out: IC50 in the cellular assay; cited from earlier work.
In a further data set the test system is kinome. Particulars: kinases hit out of panel of 187; cited from earlier work.
The target in data set [5] is purified full‐length Strep flag LRRK2 (Homo sapiens, UniProt Q5S007). Briefly: In vitro radioactive kinase assay. The data set is classed as biochemical.
Sequence of purified full‐length Strep flag LRRK2 (Q5S007 whole entry): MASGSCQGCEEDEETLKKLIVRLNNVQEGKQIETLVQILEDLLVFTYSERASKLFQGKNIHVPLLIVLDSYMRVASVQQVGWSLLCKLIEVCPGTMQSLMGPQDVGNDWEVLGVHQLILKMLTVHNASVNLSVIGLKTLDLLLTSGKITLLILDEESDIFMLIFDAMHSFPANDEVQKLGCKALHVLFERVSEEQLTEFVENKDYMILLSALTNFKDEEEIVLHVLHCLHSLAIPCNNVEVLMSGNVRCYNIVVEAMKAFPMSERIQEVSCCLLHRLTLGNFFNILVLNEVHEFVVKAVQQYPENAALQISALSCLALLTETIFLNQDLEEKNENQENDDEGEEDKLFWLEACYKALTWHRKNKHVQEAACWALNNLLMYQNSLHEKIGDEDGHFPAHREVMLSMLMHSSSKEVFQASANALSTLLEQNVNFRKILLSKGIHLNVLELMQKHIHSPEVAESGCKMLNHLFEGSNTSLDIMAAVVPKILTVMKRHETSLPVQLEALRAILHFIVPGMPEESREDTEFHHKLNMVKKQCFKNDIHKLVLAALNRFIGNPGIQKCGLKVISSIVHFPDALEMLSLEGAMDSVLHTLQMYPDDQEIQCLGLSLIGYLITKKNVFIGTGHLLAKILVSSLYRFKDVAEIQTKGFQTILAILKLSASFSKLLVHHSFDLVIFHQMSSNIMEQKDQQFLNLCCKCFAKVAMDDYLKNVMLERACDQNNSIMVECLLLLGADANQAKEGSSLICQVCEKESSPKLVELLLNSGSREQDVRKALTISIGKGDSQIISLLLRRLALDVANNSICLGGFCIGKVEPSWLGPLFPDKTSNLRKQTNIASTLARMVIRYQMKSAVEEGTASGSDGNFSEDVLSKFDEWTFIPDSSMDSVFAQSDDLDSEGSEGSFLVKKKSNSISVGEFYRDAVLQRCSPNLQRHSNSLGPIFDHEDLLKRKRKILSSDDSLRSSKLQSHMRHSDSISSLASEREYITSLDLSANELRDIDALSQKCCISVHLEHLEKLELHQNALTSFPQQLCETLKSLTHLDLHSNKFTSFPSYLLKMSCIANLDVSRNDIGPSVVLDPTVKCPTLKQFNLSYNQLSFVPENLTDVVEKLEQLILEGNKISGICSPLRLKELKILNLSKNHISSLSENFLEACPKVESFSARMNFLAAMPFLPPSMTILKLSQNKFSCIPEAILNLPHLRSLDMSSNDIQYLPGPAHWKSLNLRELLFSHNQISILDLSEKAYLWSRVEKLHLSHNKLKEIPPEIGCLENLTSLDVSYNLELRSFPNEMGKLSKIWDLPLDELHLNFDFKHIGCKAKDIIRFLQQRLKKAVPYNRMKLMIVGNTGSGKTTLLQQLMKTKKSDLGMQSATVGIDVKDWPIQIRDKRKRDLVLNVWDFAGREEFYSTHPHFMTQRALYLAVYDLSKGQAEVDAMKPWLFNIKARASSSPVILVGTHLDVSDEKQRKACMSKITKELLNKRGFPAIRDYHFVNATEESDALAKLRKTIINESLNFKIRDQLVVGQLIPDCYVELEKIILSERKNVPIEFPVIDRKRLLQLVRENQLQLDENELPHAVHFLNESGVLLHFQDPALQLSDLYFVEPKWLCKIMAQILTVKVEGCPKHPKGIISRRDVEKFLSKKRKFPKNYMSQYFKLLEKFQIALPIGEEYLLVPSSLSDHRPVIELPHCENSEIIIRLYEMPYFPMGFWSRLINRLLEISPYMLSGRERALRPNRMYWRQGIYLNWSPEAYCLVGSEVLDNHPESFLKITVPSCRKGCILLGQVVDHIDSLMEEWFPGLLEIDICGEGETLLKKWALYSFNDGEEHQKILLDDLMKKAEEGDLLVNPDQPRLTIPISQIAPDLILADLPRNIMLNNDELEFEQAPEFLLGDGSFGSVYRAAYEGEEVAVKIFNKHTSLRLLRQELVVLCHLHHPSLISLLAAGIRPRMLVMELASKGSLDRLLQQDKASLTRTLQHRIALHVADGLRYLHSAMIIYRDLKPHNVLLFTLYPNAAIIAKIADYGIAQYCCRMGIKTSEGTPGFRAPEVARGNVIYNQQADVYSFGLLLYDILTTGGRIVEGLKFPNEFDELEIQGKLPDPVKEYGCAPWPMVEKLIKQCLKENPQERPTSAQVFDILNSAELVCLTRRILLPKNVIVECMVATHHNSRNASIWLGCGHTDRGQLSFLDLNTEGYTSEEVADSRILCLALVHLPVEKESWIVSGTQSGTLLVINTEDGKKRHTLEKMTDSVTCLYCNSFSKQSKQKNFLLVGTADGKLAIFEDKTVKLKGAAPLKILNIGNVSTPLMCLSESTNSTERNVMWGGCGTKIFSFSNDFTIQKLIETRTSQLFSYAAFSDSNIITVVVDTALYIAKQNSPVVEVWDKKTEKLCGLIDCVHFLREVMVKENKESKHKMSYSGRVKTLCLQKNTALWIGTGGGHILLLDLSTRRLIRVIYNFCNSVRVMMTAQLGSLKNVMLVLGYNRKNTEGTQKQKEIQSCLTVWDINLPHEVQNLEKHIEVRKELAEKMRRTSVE

Sequence of GFP‐tagged LRRK2 in transfected HEK293 cells (Q5S007 whole entry): as above

In general, Ki refers to a dissociation constant, usually derived from enzyme kinetics or from competition with a known ligand. The IC50 is the concentration at which inhibition is half-maximal. As for `CCNc1nc(Nc2cc(F)c(C(=O)N3CCOCC3)cc2OC)ncc1C(F)(F)F` [GNE‐7915], at LRRK2 [1], the Ki was 2 nM. The brain penetration result in data set [2] is given as “brain penetrant”. Besides, in data set [3], the “LRRK2 ubiquitination (ubiquitin signal)” value is on record as “neither the original kinase inhibitor (11) nor PROTAC (33) increase LRRK2 ubiquitination”. Besides, the IC50 is 9 nM with LRRK2 [4] and 17.3 ± 6.76 nM in data set [5]. Also, the kinome selectivity in the data set on kinome is on record as 1 out of 187.
With `CC(C)C[C@@H](C=O)NC(=O)[C@H](CC(C)C)NC(=O)[C@H](CC(C)C)NC(=O)OCc1ccccc1` [MG132] (Cbz-Leu-Leu-Leu-aldehyde), the ubiquitin signal result in data set [3] (5 µM MG132 (proteasome inhibitor)) is recorded as “can enhance the ubiquitin signal”.
Consider `CCNc1nc(Nc2cc(F)c(C(=O)NCCCCNc3cccc4c3C(=O)N(C3CCC(=O)NC3=O)C4=O)cc2OC)ncc1C(F)(F)F` (stereo not drawn) [PROTAC 33], for which, in data set [3], the “LRRK2 ubiquitination (ubiquitin signal)” value was “unable to increase the ubiquitin signal”. Besides, the IC50 in data set [5] was determined as 14.7 ± 6.14 nM.
